In US9511120B2, “Use of the angiotensin-(1-9) peptide or derivatives thereof, use of vectors overexpressing the ACE2 enzyme that produces angiotensin-(1-9) for preparing medicaments useful for preventing, reverting, inhibiting and/or reducing hypertension and/or inducing vasodilation” (PONTIFICA UNIVERSIDAD CATÓLICA DE CHILE, priority 2012, dated 2016):
Where no end group is shown, it is not given here.

Experiments:
[1] = system: hypertensive rats by administration of angiotensin II; test: Hypertension induced by angiotensin II infusion: body mass, cardiac mass, systolic blood pressure; assay type: in vivo, rat
Procedure: (§1) Rats were subjected to the model of angiotensin II infusion (Grobe et al.: Am. J. Physiol. 292: H736-42, 2007). The animals were separated randomly into the following experimental groups: controls (Sham or pseudo-operated), infused with angiotensin II (300 ng/kg min), infused with angiotensin II and angiotensin-(1-9) (300 ng/kg min and 602 ng/kg min, respectively), and then infused with angiotensin II, angiotensin-(1-9) and the angiotensin-(1-7) receptor antagonist, A779 (300 ng/kg min, 602 ng/kg min, and 100 ng/kg min, respectively). In all cases the pumps operated at a flow of 0.5 μL/h and were implanted in the right jugular vein through a catheter fitted in an intrascapular subcutaneous pocket under anesthesia with ketamine HCl/xylazine (35 and 7 mg/kg i.p., respectively), for a period of 14 days.
Systolic blood pressure (SBP) was measured by the tail plethysmographic method in the animals. To such end, rats were lightly anesthetized with ethyl ether. The measurement was performed once a week by researchers blind to the treatment (Ocaranza et al. J. Hypertens. 20:413-20, 2002).
The degree of cardiac hypertrophy (CH) was measured by the ratio of the cardiac mass (CM), the body mass (BM) and relative cardiac mass (RCM; [CM/BM]*100) (Ocaranza et al., J. Hypertens. 28:1054-1064, 2010).
Four experimental groups of rats were established as described in Example 1. Group 1 corresponds to rats which were infused with saline (Sham). Group 2 corresponds to rats which were infused with only angiotensin II. Group 3 correspond to rats which were co-infused with angiotensin II and angiotensin-(1-9). And Group 4 corresponds to rats which were co-infused with angiotensin II, angiotensin-(1-9) and A779.

[2] = system: thoracic aortas of hypertensive rats by pressure overload; test: Goldblatt model: aortic hypertrophy by morphometry; assay type: in vivo, rat; conditions: GB rats, thoracic aorta
Source text: (§2) Lewis normotensive rats (weight 150±10 g), which were separated randomly into the experimental hypertension model group or GB (Ocaranza et al. J. Hypertens. 20:413-20, 2002) or control group (S) were used. The latter corresponded to pseudo-operated animals. All animals were maintained under controlled conditions of light and darkness and had free access to food and water. Four weeks after surgery and at a blood pressure above 140 mmHg, GB rats were randomized for the chronic administration of angiotensin-(1-9) through an osmotic pump (602 ng kg^−1min^−1) via the jugular vein during two weeks. The animals were euthanized after 6 weeks post-surgery.
Aortic hypertrophy was determined by morphometry. Sections of the descending aorta of 5 μm thick, which were previously fixed in Bouin (1.3% picric acid, 9.5% formaldehyde and 4.8% acetic acid) for 24 hours, embedded in paraffin and stained with hematoxylin-eosin, were used, to be examined later in a light microscope as described by Igase et al. (Am. J. Physiol. 289:H1013-9, 2005). Briefly, images of the aortas were captured by a video camera (Nikon) fixed to a microscope (Nikon), and projected on a monitor; using the software Nis-Element. Lumen areas (LA) and total areas (TA) were calculated and recorded. The tunica media area (TMA) was obtained from the difference between the TA and LA of the aorta. The tunica media thickness (TMT) was defined as the region delimited by the external elastic lamina (EEL) and internal elastic lamina (IEL).

[3] = system: cardiomyocyte hypertrophy induced by Ang II in vivo; test: Angiotensin II infusion model: cardiomyocyte hypertrophy (area and perimeter); design: species or system rat
Procedure: as §1
The middle portion of the left ventricle (LV) was dehydrated at room temperature for 24 h in Bouin and then embedded in paraffin. Sections of 10-15 μm thick were taken and stained with hematoxylin-eosin, to be examined later in a light microscope in order to observe their general morphological characteristics. Cardiomyocyte size was determined according to Nakamura et al. (Circulation, 98:794-9, 1998). Briefly, images of the cells were captured using a Nikon DS Fi1 camera and projected on a monitor using a software program. The cardiomyocyte area and perimeter were measured and recorded, using the Nis-Element program (Ocaranza et al. J. Hypertens., 28:1054-64, 2010). All measurements were performed by a blinded observer, and at least 80 images of cells per animal, which were randomly selected, were analyzed.

[4] = system: hypertensive myocardial fibrosis by pressure overload; test: Goldblatt model: volume fraction of total collagen in the ventricle (picrosirius red); assay type: in vivo, rat; conditions: GB rats
Source text: as §2
Sections of 5 μm of ventricle, previously included in Bouin, which were treated with picrosirius red, were used. The tissue was examined under light microscopy, images were captured with a Nikon DS Fi1 camera and projected on a monitor. The Matlab program was used to measure the interstitial collagen content according to the procedure described by Ocaranza et al. (J. Cardiovasc. Pharmacol. 40:246-54, 2002).

rat mesenteric arteries = test: Contractility studies in perfused, pressurized mesenteric arteries; conditions: arteries with intact endothelium as compared to arteries without endothelium
Procedure: The change in diameter of rat resistance (mesenteric) arteries was determined, they were then perfused and pressurized under physiological conditions, in response to different substances, according to a methodology previously described (Gonzalez et al. Hypertension 45:853-9, 2005). Briefly, male rats (Sprague Dawley, 150-200 g) were euthanized for dissection of mesenteric vascular territory, avoiding direct manipulation of arterial or venous tissue. Mesenteric small arteries (200-300 micrometers) were isolated, surgically eliminating adventitial tissue under a zoom stereo microscope (Olympus SZ61). The arteries were perfused intraluminally into a thermoregulated bath at controlled pressure and flow, with perfusion solution (modified Krebs, KRB) of the following composition, in mmol/L: NaCl, 130; CaCl2, 2.5; NaHCO3, 25; MgSO4, 1.2; NaH2PO4, 1.2; KCl, 4.7; glucose, 5.5, pH 7.4. Before use, KRB was gassed with a mixture of 95% O2 and 5% CO2. For perfusion, the artery was cannulated with a glass micropipette (outer diameter 164μ), secured with 5-0 silk suture. The arteries were perfused with 10-20 μL/min KRB, so as to achieve transmural pressure of 60 mmHg. After a rest period of 20 minutes, each artery was incubated in the presence of a vasoconstrictor (100 μM phenylephrine) for two minutes and an endothelial NO production agonist (1 μM acetylcholine). […]

[5] = co-administered with angiotensin II

## DRVYIHPFH
[1]; 1st week of infusion
  SBP 1st week: 141 ± 9 mmHg
[1]; 2nd week of infusion
  SBP 2nd week: 139 ± 11 mmHg
[1]; baseline, tail plethysmography
  Initial SBP: 123 ± 11 mmHg
[1]; co-administration with angiotensin II
  decrease of SBP as compared to angiotensin II: 10%
[1]; rats, infusion for 14 days
  CM: 984 ± 26 mg
  RCM (MV/MC): 386 ± 36
[2]
  increase in TMA: reduced significantly
  increase in TMA/AL: reduced significantly
  increase in TMT: reduced significantly
[3]; [5]
  reduction in cell area as compared to the group infused with angiotensin II alone: 20%
  reduction in cell perimeter as compared to the group infused with angiotensin II alone: 11%
[3]; left ventricle, two weeks
  cardiomyocyte cell area: 227±2 μm^2
  cardiomyocyte perimeter: 59.1±0.3 μm
[4]
  decrease of VFTC as compared to untreated hypertensive rats: 41%
[4]; untreated GB 6.5±1
  volume fraction of total collagen (VFTC): 3.8%
Rat mesenteric arteries
  diameter of resistance arteries: increased in a dose-dependent manner
